SMILES strings stand for the structures.

The values that follow come from patent US20090286770A1, “Use of Staurosporine Derivatives for the Treatment of Multiple Myeloma” (priority 2004, published 2009).

The test system of this assay is cell lines harbouring ras or FGFR3 activating mutations especially multiple myeloma cell lines. The assay can be described thus: potency toward cell lines harbouring ras or FGFR3 activating mutations. The format is cell-based. To be noted: especially multiple myeloma cell lines harbouring the ras or FGFR3.

Turning to `CO[C@@H]1[C@H](N(C)C(=O)c2ccccc2)C[C@H]2O[C@]1(C)n1c3ccccc3c3c4c(c5c6ccccc6n2c5c31)C(=O)NC4` [MIDOSTAURIN, N-[(9S,10R,11R,13R)-2,3,10,11,12,13-hexahydro-10-methoxy-9-methyl-1-oxo-9,13-epoxy-1H,9H-diindolo[1,2,3-gh:3′,2′,1′-lm]pyrrolo[3,4-j][1,7]benzodiazonin-11-yl]-N-methylbenzamide], the “potency toward cell lines harbouring ras or FGFR3 activating mutations” value is “unexpected high potency”.
